Results on one compound are retold here after article PMC3908613 (Bioscience Reports, 2014).

Experiment [1] relates to BMDC. The experiment can be described thus: FITC-dextran uptake (macropinocytosis) by BMDC. Type of experiment: cell-based, C57BL/6 mice. The settings on record: LPS 50 ng/ml, FITC-dextran 1 mg/ml; Akt-i at 1 μM. Here is the method:
DCs were generated from the bone marrow or the spleen of C57BL/6 mice as previously described. Briefly, bone marrow cells were cultured for 7 days at 37°C, 5% (v/v) CO2 in complete RPMI medium supplemented with 10 ng/ml recombinant granulocyte–macrophage colony-stimulating factor (GM-CSF; Peprotech). Spleen cells were cultured for 14 days at 37°C, 5% CO2 in complete RPMI containing 10 ng/ml GM-CSF and 1 ng/ml TGFβ (transforming growth factor-β; R&D Systems). NIH3T3 cells (European Cell Culture Collection) were cultured in DMEM (Dulbecco's modified Eagle's medium) supplemented with glutamine, penicillin, streptomycin and 10% (v/v) calf serum (Invitrogen).
FITC-dextran uptake was measured as described. […] In some experiments, cells were pre-treated with 1 μM Akt-i (Merck) for 30 min. Cells were left unstimulated or were stimulated with 50 ng/ml LPS for 20 min at 37°C followed by the addition of 1 mg/ml FITC dextran (Invitrogen) for 10 min at 37°C. Cells were washed four times at 4°C in PBS supplemented with 2% (v/v) FCS (foetal calf serum) and then stained with APC (allophycocyanin)-labelled anti-CD11c antibody (BD biosciences). FITC dextran uptake was measured on an FACS Calibur (BD biosciences).

Experiment [2] has as its system Rsks. The settings on record: cited from earlier work.
Experiment [3] has as its target T1, Erk1/2 (Mus musculus, UniProt P63085).
T1 construct: recovered on streptavidin beads following desthiobiotin-ATP labelling of DC lysates including Rsk2, Erk1/2 and p38; endogenous in cells; host or cells: mouse spleen-derived dendritic cells (SDC), lysate
Description: Desthiobiotin-ATP probe capture on streptavidin beads, Western blot. Type of experiment: binding, C57BL/6 mice. As to conditions: 10 μM inhibitor, DC lysate. Here is the method: (§1) SDC were cultured for at least 14 days in RPMI (without arginine and lysine, custom-made by Biosera) containing 10% dialysed FCS (Hyclone) supplemented with 84 mg/l of L-arginine (Sigma) and 40 mg/l L-lysine (Sigma) for the 'light' medium or 84 mg/l of […] or ^13C10 and 40 mg/l […] (Cambridge Isotope Laboratory) for the 'heavy' medium. Equal numbers (2×10^7) of 'light' or 'heavy' labelled SDCs were incubated in RPMI containing 0.5% FCS for 3 h in 15 cm dishes. The cells were lysed in the lysis buffer provided in the kit (Pierce). […] Labelling with the desthiobiotin ATP probe, and precipitation with streptavidin beads were performed according to the manufacturer's instructions (Pierce kinase enrichment kit or ActivXTM).
A general note: Immunoblotting shows a protein as a band on a membrane.

Experiment [4] relates to p38. Described as above. Type of experiment: binding, C57BL/6 mice. As to conditions: 10 μM inhibitor, DC lysate. The protocol: as §1

T1 sequence (P63085 2-358): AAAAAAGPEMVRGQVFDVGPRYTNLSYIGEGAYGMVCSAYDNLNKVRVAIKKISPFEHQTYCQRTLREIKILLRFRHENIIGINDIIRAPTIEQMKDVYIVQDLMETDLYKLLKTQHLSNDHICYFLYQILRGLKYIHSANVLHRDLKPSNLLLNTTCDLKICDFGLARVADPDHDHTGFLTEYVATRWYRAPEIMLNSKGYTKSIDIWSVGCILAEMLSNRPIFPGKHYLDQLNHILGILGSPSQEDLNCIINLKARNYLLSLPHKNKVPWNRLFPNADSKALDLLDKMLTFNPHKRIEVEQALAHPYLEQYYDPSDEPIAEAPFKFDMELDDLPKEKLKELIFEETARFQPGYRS

Take `CC(C)CCN1c2nc(Nc3cc(F)c(O)c(F)c3)ncc2N(C)C(=O)C1C` (stereo not shown) [D1870, BI-D1870]: the LPS-mediated dextran uptake result in experiment [1] is on record as “completely blocked”. For the same compound, in experiment [2], the IC50 is 0.01 to 0.03 µM. Further, the “capture of Erk1/2 on streptavidin beads” value in experiment [3] was “not Erk1/2 or p38, was blocked”. Also, in experiment [4], the “capture of p38 on streptavidin beads” value was “not Erk1/2 or p38, was blocked”.

The IC50 is the point on the concentration scale where inhibition reaches its midpoint.
